Experimental data: patent US20240269308A1, “PRODRUGS OF TOPOISOMERASE I INHIBITOR FOR ADC CONJUGATIONS AND METHODS OF USE THEREOF” (priority 2022, published 2024)
Where two headings read alike, the source gives them in different places.

Legend:
[1] = Mouse whole blood stability test; format: in vitro ADME; conditions: for % of test compound in whole blood (initial 1 uM as 100%): 37° C.
Method: In vitro stability of Linker-Prodrug in mouse whole blood Scheme 15. Metabolism of LP1 (M2980) in whole blood.
Stock solution of test compound was provided in 100% DMSO. The stock solution for each compound was diluted into 500 μM with mixture of 50% acetonitrile, then diluted into mouse blood to achieve a final concentration of 1.0 μM. 1.0 μM of test compound in duplicate was incubated in blood at 37° C. Aliquots of 50 uL sample was collected at 0, 15, 30, 60, 120, 240, 480 min, and 24 hours. Reactions were terminated at various time points (0, 15, 30, 60, 120, 240, 480 min, 24 hours) by adding 200 μL of ice-cold acetonitrile containing internal standard with 1% formic acid and then ultrasound for 30 seconds. Plate was centrifuged (4000 rpm, 15 min). 50 μL of supernatants were transferred into a daughter plate containing 200 μL of H2O in each well. The samples were mixed well and analyzed with UPLC-MS/MS.
A Waters liquid chromatographic system was used. Detection was performed on AP14000 Q-Trap and AP15500 mass spectrometer equipped with TurbolonSpray (ESI) Interface (Applied Biosystems, Concord, Ontario, Canada). Analyst 1.5 and 1.6.2 software packages (Applied Biosystems) were used to control the LC-MS/MS system, as well as for data acquisition and processing.
Chromatographic separation was achieved on the Wates BEH C18 column (50*2.1 mm ID, 1.7 μm). The column temperature was maintained at ambient temperature (25° C.). The flow rate was maintained at 0.6 mL/min and the following mobile phases were used: water (0.1% formic acid, v/v) (phase A) and acetonitrile (0.1% formic acid, v/v) (phase B).
Test compounds (1.0 μM) were incubated in blood at 37° C. in duplicate. Aliquots of 50 uL sample was collected at 0, 15, 30, 60, 120, 240, 480 min, and 24 hours. Reactions were terminated at various time points (0, 15, 30, 60, 120, 240, 480 min, 24 hours by adding 200 μL of ice-cold acetonitrile containing internal standard with 1% formic acid, then ultrasound for 30 seconds. The plate was centrifuged (4000 rpm, 15 min). 50 μL of supernatants were transferred into a daughter plate containing 200 μL of water in each well. Samples were mixed well and analyzed with UPLC-MS/MS.
The % was calculated based on initial 1 uM as 100% and the standard concentration curve.

SK-BR-3 cells = experiment: SKBR3 cell-based anti-proliferation / viability assay (CellTiter-Glo); set-up: species or system human; conditions: for IC50 / EC50: Homo sapiens; for IC50: SK-BR-3, 144 h
Method: (§1) The anti-Her2 viability assay protocol is following.
(§2) 0.1% BSA was added to the Opti-MEM reduced serum media [Gibco, cat #31985-070]. This assay media was used for the dilution of ADC and free drug.
(§3) Cells were seeded in their growth media into 96 well plates (Thermo #136101) one day prior to adding ADCs: 1000/well SKBR3 cells in 80 uL media (target positive cells), 1000/well NCI-N87 cells in 80 uL media (target positive cells), 1000/well Calu-3 in 80 uL media (target positive cells), and 800/well NCI-H1975 cells in 80ul media (target negative cells).
(§4) Serial dilutions of free drug in 100% DMSO (1:4 10 pts starting from 100 uM) were prepared. Serially diluted payload was transferred into Opti-Mem with 0.1% BSA (10 uL into 990 uL media). Serial dilutions of ADCs/isotype controls at 1:4 in Opti-Mem with 0.1% BSA (starting from 5×1000 nM) were prepared. 20ul assay media diluted ADC/isotype conjugates as well as free drug were transferred to above cells. The plates were incubated at 37° C., 5% CO2 for 6 days. Plates were developed by adding 100ul CellTiter Glo 2.0. RT 5-10 min. Plates were read with Envision plate reader. Data was analyzed using Prism. Only inner 60 well are used for the assay. The edge wells were filled with media to prevent dry out.
The cell line used in the anti-proliferation assays was SK-BR-3, a human breast, adenocarcinoma (pleural effusion) cell line; The cells were grown in McCoy's 5a Medium+10% FBS. To run the assay, the cells (80 μl, 1000 cells) were added to each well in a 96-well plate and incubated for 24 hours at 37° C. with CO2. Next, the cells were treated with test compounds (20 μl) at various concentrations in appropriate cell culture medium (total volume, 0.1 mL). The control wells contain cells and the medium but lack the test compounds. The plates were incubated for 144 hours at 37° C. with CO2. CTG reagent was then added to the wells (100 μl). After the plates were shaken for 10 min and then incubated for 10 min at room temperature, paste the clear bottom with white back seal and record luminescence with Envision. The inhibition % was calculated according to the following equation: inhibition %=[1-(assay-blank)/(control-blank)]×100.

NCI-H1975 cells = experiment: anti-Her2 viability assay, NCI-H1975 cells (target negative); format: cell-based; conditions: for IC50: Homo sapiens
Method: as §1, §2, §3, §4

NCI-N87 cells = experiment: anti-Her2 viability assay, NCI-N87 cells (target positive); format: cell-based; conditions: for IC50: Homo sapiens
Method: as §1, §2, §3, §4

Calu-3 = experiment: anti-Her2 viability assay, Calu-3 cells (target positive); format: cell-based; conditions: for IC50: Homo sapiens
Method: as §1, §2, §3, §4

JIMT-1 = experiment: in vitro cell killing activity, JIMT-1 cells (CellTiter Glo viability); format: cell-based; conditions: for IC50: Homo sapiens
Method: as §4

in vitro = conditions: human, plasma
[2] = SKBR3 target positive cells, 6 days
[3] = NCI-H1975 target negative cells, 6 days
[4] = Calu-3 target positive cells, 6 days

CC[C@@]1(O)C(=O)OCc2c1cc1n(c2=O)Cc2c-1nc1cc(F)c(C)c3c1c2[C@@H](NC(=O)CO)CC3 [Dxd, reference compound]
% of test compound in whole blood (initial 1 uM as 100%) ([1]; mouse blood, 0 hr): 100.0% | % of test compound in whole blood (initial 1 uM as 100%) ([1]; mouse blood, 0.25 hr): 95.9% | % of test compound in whole blood (initial 1 uM as 100%) ([1]; mouse blood, 0.5 hr): 103.6% | % of test compound in whole blood (initial 1 uM as 100%) ([1]; mouse blood, 1 hr): 111.9% | % of test compound in whole blood (initial 1 uM as 100%) ([1]; mouse blood, 2 hr): 97.6% | % of test compound in whole blood (initial 1 uM as 100%) ([1]; mouse blood, 4 hr): 94.8% | % of test compound in whole blood (initial 1 uM as 100%) ([1]; mouse blood, 8 hr): 94.2% | % of test compound in whole blood (initial 1 uM as 100%) ([1]; mouse blood, 24 hr): 94.2% | Mouse blood stability % Remaining at 24 h ([1]; mouse blood): 94.8% | half-life at 1 μM ([1]; mouse, blood, read-out: Mouse blood stability T1/2 (converted)): 62.6 h | IC50 (SK-BR-3 cells; read-out: SKBR3 IC50 (nM)): 1.02 nM | EC50 (SK-BR-3 cells; SK-BR-3, read-out: SKBR3 EC50 (nM)): 1.63 nM | SKBR3 % Kill (SK-BR-3 cells; [2]): 97.0% | IC50 (NCI-H1975 cells; NCI-H1975, 144 h, read-out: H1975 IC50 (nM)): 3.45 nM | H1975 % Kill (NCI-H1975 cells; [3]): 99.3% | IC50 (NCI-N87 cells; NCI-N87, 144 h, read-out: N87 IC50 (nM)): 2.59 nM | Calu-3 % Kill (Calu-3; [4]): 94.9% | IC50 (Calu-3; Calu-3, 144 h, read-out: Calu-3 IC50 (nM)): 1.3 nM | IC50 (JIMT-1; JIMT-1, read-out: JIMT-1 IC50 (nM)): 4.41 nM | JIMT-1 % Kill (JIMT-1; JIMT-1 cells): 94.5%

CC[C@@]1(O)C(=O)OCc2c1cc1n(c2=O)Cc2c-1nc1cc(F)c(C)c3c1c2[C@@H](NC(=O)COCNC(=O)CN)CC3 [P1, 2-Amino-N-[({[(10S,23S)-10-ethyl-18-fluoro-10-hydroxy-19-methyl-5,9-dioxo-8-oxa-4,15-diazahexacyclo[14.7.1.0^2,14.0^4,13.0^6,11.0^20,24]tetracosa-1,6(11),12,14,16,18,20(24)-heptaen-23-yl]carbamoyl}methoxy)methyl]acetamide]
half-life at 1 μM ([1]; mouse, blood): 0.63 h | Mouse blood stability % Remaining at 24 h ([1]; mouse, blood, 1 μM): 4.1% | Human plasma stability % Remaining at 24 h: 72.4% | half-life (in vitro): 49.6 h | IC50 (SK-BR-3 cells; SKBR3 target positive cells, 6 days, CellTiter Glo, read-out: SKBR3 IC50): 5.81 nM | EC50 (SK-BR-3 cells; SK-BR-3, read-out: SKBR3 EC50): 9.52 nM | SKBR3 % Kill (SK-BR-3 cells; [2]): 96.0% | IC50 (NCI-H1975 cells; 144 h, NCI-H1975 target negative cells, 6 days, read-out: H1975 IC50): 23.9 nM | H1975 % Kill (NCI-H1975 cells; [3]): 96.4% | IC50 (NCI-N87 cells; 144 h, NCI-N87 target positive cells, 6 days, read-out: N87 IC50): 9.25 nM | N87 % Kill (NCI-N87 cells; NCI-N87 target positive cells, 6 days): 98.0% | Calu-3 % Kill (Calu-3; [4]): 93.1% | IC50 (Calu-3; 144 h, Calu-3 target positive cells, 6 days, read-out: Calu-3 IC50): 6.78 nM | IC50 (JIMT-1; JIMT-1 cells, read-out: JIMT-1 IC50): 26.6 nM | JIMT-1 % Kill (JIMT-1; JIMT-1 cells): 89.8%

CC[C@@]1(O)C(=O)OCc2c1cc1n(c2=O)Cc2c-1nc1cc(F)c(C)c3c1c2[C@@H](NC(=O)COCNC(=O)[C@@H](N)CCCCN)CC3 [P5, (2S)-2,6-diamino-N-[({[(10S,23S)-10-ethyl-18-fluoro-10-hydroxy-19-methyl-5,9-dioxo-8-oxa-4,15-diazahexacyclo[14.7.1.0^2,14.0^4,13.0^6,11.0^20,24]tetracosa-1,6(11),12,14,16,18,20(24)-heptaen-23-yl]carbamoyl}methoxy)methyl]hexanamide]
half-life at 1 μM ([1]; mouse, blood): 0.4 h | Mouse blood stability % Remaining at 24 h ([1]; mouse, blood, 1 μM): 1.3% | Human plasma stability % Remaining at 24 h: 69.7% | half-life (in vitro): 49.4 h | EC50 (SK-BR-3 cells; SK-BR-3, read-out: SKBR3 EC50): 4.51 nM

CC[C@@]1(O)C(=O)OCc2c1cc1n(c2=O)Cc2c-1nc1cc(F)c(C)c3c1c2[C@@H](NC(=O)COCNC(=O)[C@@H](N)CCCCN=[N+]=[N-])CC3 [P6, (2S)-2-amino-6-azido-N-[({[(10S,23S)-10-ethyl-18-fluoro-10-hydroxy-19-methyl-5,9-dioxo-8-oxa-4,15-diazahexacyclo[14.7.1.0^2,14.0^4,13.0^6,11.0^20,24]tetracosa-1,6(11),12,14,16,18,20(24)-heptaen-23-yl]carbamoyl}methoxy)methyl]hexanamide]
half-life at 1 μM ([1]; mouse, blood): 0.2 h | Mouse blood stability % Remaining at 24 h ([1]; mouse, blood, 1 μM): 3.3% | Human plasma stability % Remaining at 24 h: 59.0% | half-life (in vitro): 28.2 h | EC50 (SK-BR-3 cells; SK-BR-3, read-out: SKBR3 EC50): 2.06 nM

CC[C@@]1(O)C(=O)OCc2c1cc1n(c2=O)Cc2c-1nc1cc(F)c(C)c3c1c2[C@@H](NC(=O)COCNC(=O)CNC(=O)CN)CC3 [P8, 2-amino-N-({[({[(10S,23S)-10-ethyl-18-fluoro-10-hydroxy-19-methyl-5,9-dioxo-8-oxa-4,15-diazahexacyclo[14.7.1.0^2,14.0^4,13.0^6,11.0^20,24]tetracosa-1,6(11),12,14,16,18,20(24)-heptaen-23-yl]carbamoyl}methoxy)methyl]carbamoyl}methyl)acetamide]
half-life at 1 μM ([1]; mouse, blood): 2.9 h | Mouse blood stability % Remaining at 24 h ([1]; mouse, blood, 1 μM): 46.9% | Human plasma stability % Remaining at 24 h: 86.0% | half-life (in vitro): 144 h | EC50 (SK-BR-3 cells; SK-BR-3, read-out: SKBR3 EC50): 30.8 nM

CC[C@@]1(O)C(=O)OCc2c1cc1n(c2=O)Cc2c-1nc1cc(F)c(C)c3c1c2[C@@H](NC(=O)COCN(C)C(=O)CN)CC3 [P9, 2-amino-N-[({[(10S,23S)-10-ethyl-18-fluoro-10-hydroxy-19-methyl-5,9-dioxo-8-oxa-4,15-diazahexacyclo[14.7.1.0^2,14.0^4,13.0^6,11.0^20,24]tetracosa-1,6(11),12,14,16,18,20(24)-heptaen-23-yl]carbamoyl}methoxy)methyl]-N-methylacetamide]
EC50 (SK-BR-3 cells; SK-BR-3, read-out: SKBR3 EC50): 69.5 nM

CC[C@@]1(O)C(=O)OCc2c1cc1n(c2=O)Cc2c-1nc1cc(F)c(C)c3c1c2[C@@H](NC(=O)COCNC(=O)C(C)(C)N)CC3 [P11, 2-amino-N-[({[(10S,23S)-10-ethyl-18-fluoro-10-hydroxy-19-methyl-5,9-dioxo-8-oxa-4,15-diazahexacyclo[14.7.1.0^2,14.0^4,13.0^6,11.0^20,24]tetracosa-1,6(11),12,14,16,18,20(24)-heptaen-23-yl]carbamoyl}methoxy)methyl]-2-methylpropanamide]
EC50 (SK-BR-3 cells; SK-BR-3, read-out: SKBR3 EC50): 27.7 nM

CC[C@@]1(O)C(=O)OCc2c1cc1n(c2=O)Cc2c-1nc1cc(F)c(C)c3c1c2[C@@H](NC(=O)COCNC(=O)[C@H](N)Cc1ccccc1)CC3 [P12, (2R)-2-amino-N-[({[(10S,23S)-10-ethyl-18-fluoro-10-hydroxy-19-methyl-5,9-dioxo-8-oxa-4,15-diazahexacyclo[14.7.1.0^2,14.0^4,13.0^6,11.0^20,24]tetracosa-1,6(11),12,14,16,18,20(24)-heptaen-23-yl]carbamoyl}methoxy)methyl]-3-phenylpropanamide]
EC50 (SK-BR-3 cells; SK-BR-3, read-out: SKBR3 EC50): 15.3 nM
